Reference: PMC3961306, “Comparison of the Cancer Gene Targeting and Biochemical Selectivities of All Targeted Kinase Inhibitors Approved for Clinical Use” (PLoS ONE, 2014)
Read-outs that look alike come from different tables or passages of the source.

Assays:
[1] = test system: forty-four human cancer cell lines; assay: Cell proliferation assay (ATPlite, 72 hours) in the 44 cell line Oncolines panel; assay type: cell-based; conditions: Homo sapiens
[2] = target: panel of more than 300 wild-type and mutant kinases (313 kinase panel) (Homo sapiens, UniProt P00533, L858R); assay: Kinase profiling in a biochemical assay panel (mobility shift assays and ELISA), %-inhibition at 1 μM; selectivity entropy; conditions: kinase EGFR(L858R); compound at 1 μM
[3] = target: T1, panel of more than 300 wild-type and mutant kinases (313 kinase panel) (Homo sapiens, UniProt P51955); assay: as above; conditions: kinase NEK2; 1 μM
T1 sequence (P51955 1-445): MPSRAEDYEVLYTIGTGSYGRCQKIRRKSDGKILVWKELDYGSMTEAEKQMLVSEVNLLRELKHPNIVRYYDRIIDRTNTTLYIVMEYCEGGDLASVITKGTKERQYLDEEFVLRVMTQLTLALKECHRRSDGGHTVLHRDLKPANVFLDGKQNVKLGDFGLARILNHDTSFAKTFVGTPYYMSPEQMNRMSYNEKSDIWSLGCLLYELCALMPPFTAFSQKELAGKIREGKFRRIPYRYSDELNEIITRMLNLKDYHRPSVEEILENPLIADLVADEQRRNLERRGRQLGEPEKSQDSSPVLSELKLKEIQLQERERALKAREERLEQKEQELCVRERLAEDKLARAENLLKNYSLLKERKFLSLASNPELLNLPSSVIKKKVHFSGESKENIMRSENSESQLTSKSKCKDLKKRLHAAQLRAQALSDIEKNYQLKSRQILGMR

[4] = target: panel of more than 300 wild-type and mutant kinases (313 kinase panel) (Homo sapiens, UniProt P22694); assay: as above; conditions: kinase PKACβ; 1 μM
[5] = target: T2, panel of more than 300 wild-type and mutant kinases (313 kinase panel) (Homo sapiens, UniProt P30530); assay: as above; conditions: kinase AXL; 1 μM compound
T2 sequence (P30530 26-894): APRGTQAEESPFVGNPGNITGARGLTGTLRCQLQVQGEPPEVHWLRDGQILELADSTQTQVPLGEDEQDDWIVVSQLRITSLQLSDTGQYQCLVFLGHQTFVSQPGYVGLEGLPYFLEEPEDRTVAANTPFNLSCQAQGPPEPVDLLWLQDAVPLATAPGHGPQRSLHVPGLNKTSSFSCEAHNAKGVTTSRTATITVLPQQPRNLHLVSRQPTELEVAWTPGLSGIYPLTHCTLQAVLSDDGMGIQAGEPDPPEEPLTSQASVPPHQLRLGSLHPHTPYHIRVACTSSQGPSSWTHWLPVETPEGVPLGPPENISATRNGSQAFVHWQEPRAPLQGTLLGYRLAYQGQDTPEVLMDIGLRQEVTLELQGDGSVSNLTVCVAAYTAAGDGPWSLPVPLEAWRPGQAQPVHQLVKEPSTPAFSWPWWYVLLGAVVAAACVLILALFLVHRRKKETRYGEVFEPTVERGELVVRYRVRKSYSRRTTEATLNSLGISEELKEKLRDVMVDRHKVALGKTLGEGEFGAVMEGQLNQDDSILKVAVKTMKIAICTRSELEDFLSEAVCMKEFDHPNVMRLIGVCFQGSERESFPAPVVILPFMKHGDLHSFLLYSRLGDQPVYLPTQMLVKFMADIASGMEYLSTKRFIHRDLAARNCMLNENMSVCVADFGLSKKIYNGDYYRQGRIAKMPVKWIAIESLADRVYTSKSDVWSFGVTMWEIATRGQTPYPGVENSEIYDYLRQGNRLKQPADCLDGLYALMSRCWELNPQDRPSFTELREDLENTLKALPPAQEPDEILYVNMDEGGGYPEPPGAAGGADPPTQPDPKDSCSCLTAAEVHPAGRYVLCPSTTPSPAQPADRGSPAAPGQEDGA

[6] = target: panel of more than 300 wild-type and mutant kinases (313 kinase panel) (Homo sapiens, UniProt Q9NQU5); assay: as above; conditions: kinase PAK6; 1 μM
[7] = target: panel of more than 300 wild-type and mutant kinases (313 kinase panel) (Homo sapiens, UniProt P11362, V561M); assay: as above; conditions: kinase FGFR1(V561M); compound at 1 μM
[8] = A 172, read-out: cell panel IC50, A-172
[9] = A498, read-out: cell panel IC50, A-498
[10] = A549, read-out: cell panel IC50, A-549
[11] = A-427, read-out: cell panel IC50, A-427
[12] = AU565, read-out: cell panel IC50, AU-565
[13] = BT-549, read-out: cell panel IC50, BT-549
[14] = HCT-116, read-out: cell panel IC50, HCT-116
[15] = K562, read-out: cell panel IC50, K-562
[16] = LS174T, read-out: cell panel IC50, LS 174T

SMILES: Cc1ccc(Nc2nccc(N(C)c3ccc4c(C)n(C)nc4c3)n2)cc1S(N)(=O)=O [pazopanib]
- IC50 ([1]; 4-4 cell, read-out: cell panel IC50, J82): 28.9 µM
- IC50 ([1]; 4-4 cell, read-out: cell panel IC50, PA-1): 10.6 µM
- IC50 ([1]; 4-4 cell, read-out: cell panel IC50, SJCRH30): 9.59 µM
- IC50 ([1]; 4-4 cell, read-out: cell panel IC50, SR): 6.2 µM
- IC50 ([1]; 769-P, read-out: cell panel IC50, 769-P): 5.99 µM
- IC50 ([1]; 786-0, read-out: cell panel IC50, 786-0): 8.1 µM
- IC50 [1, 8]: 13.1 µM
- IC50 ([1]; A204, read-out: cell panel IC50, A-204): 0.229 µM
- IC50 [1, 9]: 11.1 µM
- IC50 [1, 10]: 14.8 µM
- IC50 ([1]; A-375, read-out: cell panel IC50, A375): 16.7 µM
- IC50 [1, 11]: 7.3 µM
- IC50 ([1]; ACHN, read-out: cell panel IC50, ACHN): 9.33 µM
- IC50 ([1]; AN3-CA, read-out: cell panel IC50, AN3 CA): 0.289 µM
- IC50 [1, 12]: 6.57 µM
- IC50 ([1]; BT-20, read-out: cell panel IC50, BT-20): 19.2 µM
- IC50 [1, 13]: 7.91 µM
- IC50 ([1]; BXPC-3, read-out: cell panel IC50, BxPC-3): 6.71 µM
- IC50 ([1]; C-33-A, read-out: cell panel IC50, C-33 A): 7.9 µM
- IC50 ([1]; CAL-27, read-out: cell panel IC50, CAL 27): 18.6 µM
- IC50 ([1]; CCRF-CEM, read-out: cell panel IC50, CCRF-CEM): 10.9 µM
- IC50 ([1]; DLD-1, read-out: cell panel IC50, DLD-1): 10.5 µM
- IC50 ([1]; FaDu, read-out: cell panel IC50, FaDu): 11.5 µM
- IC50 ([1]; HCT-15, read-out: cell panel IC50, HCT-15): 11.8 µM
- IC50 [1, 14]: 17.4 µM
- IC50 ([1]; Hs-578T, read-out: cell panel IC50, Hs 578T): 11.5 µM
- IC50 ([1]; Jurkat E6.1, read-out: cell panel IC50, Jurkat E6.1): 4.58 µM
- IC50 [1, 15]: 12.5 µM
- IC50 [1, 16]: 9.94 µM
- IC50 ([1]; LoVo, read-out: cell panel IC50, LoVo): 7.39 µM
- IC50 ([1]; MG-63, read-out: cell panel IC50, MG-63): 13.5 µM
- IC50 ([1]; MOLT-4, read-out: cell panel IC50, MOLT-4): 6.89 µM
- IC50 ([1]; MeWo, read-out: cell panel IC50, MeWo): 25.4 µM
- IC50 ([1]; NCI-H82, read-out: cell panel IC50, NCI-H82): 8.41 µM
- IC50 ([1]; NCI-H460, read-out: cell panel IC50, NCI-H460): 1.63 µM
- IC50 ([1]; OVCAR-3, read-out: cell panel IC50, OVCAR-3): > 31.6 µM
- IC50 ([1]; RPMI-7951, read-out: cell panel IC50, RPMI-7951): 15.1 µM
- IC50 ([1]; SHP77, read-out: cell panel IC50, SHP-77): 12.5 µM
- IC50 ([1]; SK-N-AS, read-out: cell panel IC50, SK-N-AS): 19.4 µM
- IC50 ([1]; SW48, read-out: cell panel IC50, SW48): 13.1 µM
- IC50 ([1]; SW480, read-out: cell panel IC50, SW480): 10.2 µM
- IC50 ([1]; SW-620, read-out: cell panel IC50, SW620): 9.11 µM
- IC50 ([1]; U2OS, read-out: cell panel IC50, U-2 OS): 14 µM
- IC50 ([1]; U-87 MG, 72 h, read-out: IC50 in cell proliferation assay (table S5 cellpanel data)): 24 µM
- %-inhibition of EGFR(L858R) [2]: 36%
- %-inhibition of NEK2 [3]: 27%
- %-inhibition of PKACβ [4]: 0.211%
- %-inhibition, AXL [5]: 24%
- %-inhibition of PAK6 [6]: 5.54%

SMILES: CC(=O)Nc1cccc(-n2c(=O)n(C3CC3)c(=O)c3c(Nc4ccc(I)cc4F)n(C)c(=O)c(C)c32)c1 [trametinib]
- IC50 [1, 8]: 0.11 µM
- IC50 ([1]; A204, cell line A-204, read-out: cell panel IC50, A-204): 0.631 µM
- IC50 [1, 9]: 22.3 µM
- IC50 [1, 10]: 0.057 µM
- IC50 ([1]; A-375, cell line A375, read-out: cell panel IC50, A375): 0.013 µM
- IC50 [1, 11]: 0.017 µM
- IC50 [1, 12]: 19.4 µM
- IC50 [1, 13]: 17.7 µM
- IC50 [1, 14]: 0.035 µM
- IC50 [1, 15]: 0.037 µM
- IC50 [1, 16]: 0.037 µM
- IC50 ([1]; SHP77, cell line SHP-77, read-out: cell panel IC50, SHP-77): > 31.6 µM
- IC50 ([1]; SW-620, cell line SW620, read-out: cell panel IC50, SW620): 0.00135 µM
- IC50 ([1]; U2OS, cell line U-2 OS, read-out: cell panel IC50, U-2 OS): 0.311 µM
- IC50 ([1]; cell line J82, read-out: cell panel IC50, J82): > 31.6 µM
- IC50 ([1]; cell line PA-1, read-out: cell panel IC50, PA-1): 0.436 µM
- IC50 ([1]; cell line SJCRH30, read-out: cell panel IC50, SJCRH30): 0.783 µM
- IC50 ([1]; cell line SR, read-out: cell panel IC50, SR): 0.95 µM
- IC50 ([1]; U-87 MG cell line, ATPlite, 72 hours, read-out: IC50 in cell proliferation assay (table S5 cellpanel data)): 0.229 µM
- IC50 ([1]; cell line 769-P, read-out: cell panel IC50, 769-P): 0.085 µM
- IC50 ([1]; cell line 786-0, read-out: cell panel IC50, 786-0): 25.8 µM
- IC50 ([1]; cell line ACHN, read-out: cell panel IC50, ACHN): 0.496 µM
- IC50 ([1]; cell line AN3 CA, read-out: cell panel IC50, AN3 CA): 13.6 µM
- IC50 ([1]; cell line BT-20, read-out: cell panel IC50, BT-20): > 31.6 µM
- IC50 ([1]; cell line BxPC-3, read-out: cell panel IC50, BxPC-3): 0.029 µM
- IC50 ([1]; cell line C-33 A, read-out: cell panel IC50, C-33 A): 0.008 µM
- IC50 ([1]; cell line CAL 27, read-out: cell panel IC50, CAL 27): 0.058 µM
- IC50 ([1]; cell line CCRF-CEM, read-out: cell panel IC50, CCRF-CEM): 28 µM
- IC50 ([1]; cell line DLD-1, read-out: cell panel IC50, DLD-1): 0.493 µM
- IC50 ([1]; cell line FaDu, read-out: cell panel IC50, FaDu): 0.014 µM
- IC50 ([1]; cell line HCT-15, read-out: cell panel IC50, HCT-15): 2.04 µM
- IC50 ([1]; cell line Hs 578T, read-out: cell panel IC50, Hs 578T): 0.371 µM
- IC50 ([1]; cell line Jurkat E6.1, read-out: cell panel IC50, Jurkat E6.1): > 31.6 µM
- IC50 ([1]; cell line LoVo, read-out: cell panel IC50, LoVo): 0.008 µM
- IC50 ([1]; cell line MG-63, read-out: cell panel IC50, MG-63): 0.119 µM
- IC50 ([1]; cell line MOLT-4, read-out: cell panel IC50, MOLT-4): 19.3 µM
- IC50 ([1]; cell line MeWo, read-out: cell panel IC50, MeWo): 0.033 µM
- IC50 ([1]; cell line NCI-H82, read-out: cell panel IC50, NCI-H82): 24.7 µM
- IC50 ([1]; cell line NCI-H460, read-out: cell panel IC50, NCI-H460): 0.014 µM
- IC50 ([1]; cell line OVCAR-3, read-out: cell panel IC50, OVCAR-3): > 31.6 µM
- IC50 ([1]; cell line RPMI-7951, read-out: cell panel IC50, RPMI-7951): 0.01 µM
- IC50 ([1]; cell line SK-N-AS, read-out: cell panel IC50, SK-N-AS): 0.00952 µM
- IC50 ([1]; cell line SW48, read-out: cell panel IC50, SW48): 0.0012 µM
- IC50 ([1]; cell line SW480, read-out: cell panel IC50, SW480): 0.574 µM
- %-inhibition of NEK2 [3]: 2.76%
- %-inhibition of FGFR1(V561M) [7]: -3.3%
- %-inhibition of PKACβ [4]: -5%
- %-inhibition, AXL [5]: -1.12%
- %-inhibition of PAK6 [6]: 8%
